From patent US4172941A, “7-[2-[ω-(1,3-Dit hiolan-2-imino)substituted]-acetylamino]cephalosporanic acid derivatives” (Richardson-Merrell Inc., priority 1978, dated 1979)
Values after ≈ are worked out from the molar mass of the structure shown.

Key:
Streptococcus pyogenes [1] = experiment: in vitro minimal inhibitory concentration, two-fold serial dilutions in trypticase soy broth; format: cell-based; conditions: 24 hours at 37° C.
Protocol: (§1) The following example illustrates the in vitro activity of the compounds of this invention.
(§2) Two-fold serial dilutions of the test compounds are made in trypticase soy broth. A series of tubes of broth containing different concentrations of the test compounds are inoculated with the particular bacterial culture used for in vitro activity. The inoculated tubes are examined for the inhibition of bacterial growth after 24 hours of incubation at 37° C. The following table summarizes the minimal inhibitory concentration (MIC) for various bacterial test cultures using the following compounds: […]

Staphylococcus aureus = experiment: as above; format: cell-based; conditions: 24 hours at 37° C.
Protocol: as §1, §2

Diplococcus pneumonae = experiment: as above; format: cell-based; conditions: 24 hours at 37° C.
Protocol: as §1, §2

[2] = tested on: Salmonella schottmuelleri; experiment: as above; format: cell-based; conditions: 24 hours at 37° C.
Protocol: as §1, §2

Escherichia coli = experiment: as above; format: cell-based; conditions: 24 hours at 37° C.
Protocol: as §1, §2

Streptococcus pyogenes [3] = experiment: in vivo protection of mice challenged with a fatal bacterial infection; conditions: sc, subcutaneous, 1 and 4 hours after challenge, dose per treatment protecting fifty percent
Protocol: (§3) The following example illustrates the in vivo activity of the compounds of this invention.
(§4) Several groups of 10 mice are challenged with a fatal bacterial infection. Various dose levels of the test compound are administered orally or subcutaneously to separate groups of these animals 1 and 4 hours after challenge. After three of four days, depending upon the test organism, the number of survivors are recorded at each dose level and the dose required per treatment to protect fifty percent of the infected mice (ED50) is calculated by the method described by Reed and Muench, Amer. J. Hyg. 27, 493-497 (1938).

Diplococcus pneumoniae = experiment: as above; conditions: Streptococcus pneumoniae, 1 and 4 hours after challenge, dose per treatment protecting fifty percent
Protocol: as §3, §4

Salmonella schotmuelleri = experiment: as above; conditions: sc, subcutaneous, 1 and 4 hours after challenge, dose per treatment protecting fifty percent
Protocol: as §3, §4

SMILES	MIC (Streptococcus pyogenes [1]) [µg/mL]	MIC (Staphylococcus aureus) [µg/mL]	MIC (Diplococcus pneumonae) [µg/mL]	MIC [2] [µg/mL]	MIC (Escherichia coli) [µg/mL]	ED50 (Streptococcus pyogenes [3]) [mg/kg]	ED50 (Diplococcus pneumoniae; po, per os) [mg/kg]	ED50 (Diplococcus pneumoniae; sc, subcutaneous) [mg/kg]	ED50 (Salmonella schotmuelleri) [mg/kg]
CC(=O)OCC1=C(C(=O)O)N2C(=O)C(NC(=O)CN=C3SCCS3)C2SC1 (stereo not drawn) [Compound A, 7-[2-(1,3-dithiolan-2-imino)acetylamino]cephalosporanic acid]	0.4 (≈ 0.927 µM)	0.4 (≈ 0.927 µM)	0.1 (≈ 0.232 µM)	12.5 (≈ 29 µM)	50 (≈ 116 µM)	15.3	–	–	–
CC1=C(C(=O)O)N2C(=O)C(NC(=O)C(N=C3SCCS3)c3ccccc3)C2SC1 (stereo not drawn) [Compound B, 7-[2-(1,3-dithiolan-2-imino)-2-phenylacetylamino]desacetoxycephalosporanic acid]	6.2 (≈ 13.8 µM)	25 (≈ 55.6 µM)	12.5 (≈ 27.8 µM)	> 100	> 100	48	–	–	–
CC1=C(C(=O)O)N2C(=O)C(NC(=O)C(N)c3ccc(N=C4SCCS4)cc3)C2SC1 (stereo not drawn) [Compound C, 7-[2-amino-2-[p-(1,3-dithiolan-2-imino)phenyl]acetylamino]desacetoxycephalosporanic acid]	≤ 0.05	3.1 (≈ 6.67 µM)	≤ 0.05	> 100	> 100	0.5	4.1	5	> 100
CC(=O)OCC1=C(C(=O)O)N2C(=O)C(NC(=O)C(O)c3ccc(N=C4SCCS4)cc3)C2SC1 (stereo not drawn) [Compound D, 7-[2-[p-(1,3-dithiolan-2-imino)phenyl]-2-hydroxyacetylamino]cephalosporanic acid]	< 0.05	0.4 (≈ 0.764 µM)	< 0.05	50 (≈ 95.5 µM)	200 (≈ 382 µM)	2.2	–	–	–
